Data set [1] has as its system primary human AML cells. Description: Primary human AML mononuclear cells in semi-solid media (viable cells, colonies, apoptosis). The note with it: for mean decrease in number of viable cells / mean decrease of clonogenic capacity: in comparison to vehicle; for average increase of apoptotic cell fraction: vs vehicle. It is filed as cell-based. The protocol: FIG. 4A-4G. PU.1 inhibition decreases cell growth and increases apoptosis of primary human AML cells. (A-C) Transduced GFP+ human primary mononuclear AML cells were plated in semi-solid media (150 000 cells per ml of methyl); colony number, number of viable cells and apoptotic cells were assessed after 14 days of culture. (A, B) Clonogenic capacities and number of viable cells after transduction with shPU.1_1 and shPU.1_2 (n=7). (C) Apoptotic cells (Annexin-V+Dapi−) fraction after transduction with shPU.1_1 and shPU.1_2 (n=7). (D-F) Human primary mononuclear AML cells were plated in semi-solid media (150 000 cells per ml of methyl) containing the PU.1 inhibitors DB1976, DB2115 and DB2313; colony number, number of viable cells and apoptotic cells were assessed after 14 days of culture. (D-E) Clonogenic capacities (n=9) and number of viable cells (n=8) after treatment. (F) Apoptotic cells (Annexin-V+Dapi−) fraction after treatment (n=8). […] (A-G) Data represent means±SD, each AML sample is represented by an individual dot. Fold change compared to shCtrl or Vehicle is shown.
To determine whether PU.1 inhibition has an effect on primary cells from AML patients, we seeded mononuclear cells from AML patients in semi-solid media for 2 weeks and assessed the number of colonies, the number of viable cells and the proportion of apoptotic cells. […] At the same time, the proportion of apoptotic cells increased on average of 2-fold upon knockdown of PU.1 in primary human AML cells with the more efficient shRNA (shPU.1_2) (FIG. 1F).
We also explored the effect of the small molecule PU.1 inhibitors on primary human AML cells, and treated 11 samples from AML patients with PU.1 inhibitors. PU.1 inhibitors led to significant decreases in the number of viable cells (mean decrease: 81% for DB1976, 68% for DB2115, 72% for DB2313) (FIG. 3E), and clonogenic capacity (mean decrease of 36% for DB1976, 45% for DB2115, 60% for DB23313), in comparison to vehicle (FIG. 3F). The apoptotic cell fraction increased on average by 1.5-fold with DB1976, 2.2-fold with DB2115 and 2.5-fold with DB2313 (FIG. 3G).

Data set [2] relates to PU.1 occupancy on E2f1, Junb and Csf1r promoters. Description: Chromatin immunoprecipitation of PU.1 on target promoters in AML cells. The class given is cell-based. The note with it: ChIP. The method, then:
FIG. 3A-3G. Novel inhibitors show on-target PU.1 inhibitory activity. (A) Quantitative RT-PCR analysis of Csf1r, Junb, Sfpi1, E2f1 expression after 72 h (n=6) and, for Csf1r, after 1 h (n=3), 4 h (n=7), 8 h (n=3) and 24 h (n=3) of treatment with the small molecules in URE−/− cells, expression is normalized to GAPDH expression. Data represent means±SD of technical triplicate from one representative experiment; fold change compared to Vehicle is shown. (B) Chromatin immunoprecipitation assay showing PU.1 occupancy on E2f1, Junb, Csf1r promoters after treatment in Umsh cell line (n=5). 10·10^6 cells were collected for each condition after 8 h treatment with a double dose of the small molecules (50 uM for DB1976, 1.4 uM for DB2115 and 660 nM for DB2313) or Vehicle; and processed for ChIP using PU.1 monoclonal antibody. Myogenin was used as a negative control, not regulated by PU.1. Data represent means±SD of technical triplicate from one representative experiment. (C) Cell viability after PU.1 rescue in MOLM13 cells. MOLM13 were transduced with a lentiviral construct expressing either PU.1-GFP (PU.1, black bar) or GFP as a control (empty, white bar), sorted on GFP and plated with DB1976 (n=7), DB2115 (n=8), DB2313 (n=6) or Vehicle. Cell count was performed after 4 days. Data represent means±SD of technical triplicate from one representative experiment; fold change compared to Vehicle is shown. (D-G) Transcriptome analysis of URE−/− cells after 24 h of treatment with DB2313 versus vehicle (n=3). Differentially expressed genes were determined with a fold change at 1.2 and a P value <0.1. […] Deregulated gens in PUER cells were analyzed with a FC at 1.5 and P-value <0.05. […] P-value was calculated using the hypergeometric test. […]
To assess on-target activity of our inhibitors in AML cells, we measured transcript levels of well-known PU.1 targets in PU.1 URE^−/− AML cells. […] As Csf1r is one of the most sensitive PU.1 targets in myeloid cells, we assessed its expression at different time points (1 h, 4 h, 8 h and 24 h) after drug treatment. […]

Where a name gives a salt, the structure may show the parent alone.

Turning to `N=C(N)c1ccc2nc(-c3ccc(-c4nc5ccc(C(=N)N)cc5[nH]4)[se]3)[nH]c2c1` [DB1976], in data set [1], the “mean decrease in number of viable cells” value was determined as 81%, the “mean decrease of clonogenic capacity” value was 36% and the “average increase of apoptotic cell fraction” value worked out at 1.5 fold. In addition, the “PU.1 occupancy on E2f1, Junb and Csf1r promoters” value (“PU.1 occupancy on E2f1” for short) in data set [2] is on record as “decreased”.

On to `N=C(N)c1ccc2nc(-c3ccc(OCCCCOc4ccc(-c5nc6ccc(C(=N)N)cc6[nH]5)cc4)cc3)[nH]c2c1` [DB2115], for which, in data set [1], the “mean decrease in number of viable cells” value amounted to 68%, the “mean decrease of clonogenic capacity” value worked out at 45% and the “average increase of apoptotic cell fraction” value is listed as 2.2 fold. For the same molecule, the “PU.1 occupancy on E2f1” value in data set [2] was “decreased”.

Regarding `CC(C)NC(=N)c1ccc2nc(-c3ccc(OCc4cccc(COc5ccc(-c6nc7ccc(C(=N)NC(C)C)cc7[nH]6)cc5)c4F)cc3)[nH]c2c1` [DB2313, 3-Bis{4[4(5)-N-isopropylamidinobenzimidazolyl]phenoxymethyl]}-2-fluorobenzene tetrahydrochloride], in data set [1], the “mean decrease in number of viable cells” value worked out at 72%, the “mean decrease of clonogenic capacity” value worked out at 60% and the “average increase of apoptotic cell fraction” value worked out at 2.5 fold. Also, in data set [2], the “PU.1 occupancy on E2f1” value is on record as “decreased”.

The values above are taken from patent publication US10774049B2, “PU.1 inhibitors” (Albert Einstein College of Medicine, priority 2016, dated 2020).
